Laboratory results as given in patent US20090258836A1, “EFFECTIVE DELIVERY OF CROSS-SPECIES A3 ADENOSINE-RECEPTOR ANTAGONISTS TO REDUCE INTRAOCULAR PRESSURE” (The Trustees of The University of Pennsylvania, priority 2006, published 2009).
“Also recorded” adds a separate entry of the source.

What was measured:
mouse IOP [1] = test: Mouse IOP monitored with SNMS, protocols of Yang et al. 2005; format: in vivo
Protocol: Pharmacol. 65:1675-1684 (2003)), is effective both in blocking adenosine-triggered shrinkage of cultured human NPE cells and in lowering IOP of mice (Yang et al., supra, 2005). MRS-1292 was tested on the mouse for two reasons. Transgenic mice provide a convenient opportunity for studying the molecular physiology and pharmacology in the living animal ([…] al., supra, 2003). Second, measurement of IOP permitted us to assess the effects of MRS-1292 on the target parameter. […] Therefore, to directly assess the effect of MRS-1292 in vivo in the mouse, IOP was monitored before and after drug application. IOP was monitored with the Servo-Null-Micropipette System (SNMS). The test protocols are described in detail by Yang et al. supra, 2005, herein incorporated by reference. […] In comparison, addition of the same volume of saline at the same osmolality produced no significant change in IOP (-0.3±1.2 mmHg, n=6, p>0.8) 14 min later. […] To estimate an approximate range, “penetrance” was defined by Yang et al. as the ratio of the published Ki value at receptors in vitro to the minimally effective droplet concentration, for a number of adenosine agonists and antagonists. Thus, penetrance ranges from 1:100 to 1:1000 for purinergic drugs that have been tested in the mouse, and it is not very different from the drug penetrance of 1:100 for agents applied topically to rabbits and primates. This rule of thumb also applies to acylguanidine blockers and bumetanide, whose topical effects have also been studied in the mouse eye. Thus, the approximately 1:1000 penetrance that Yang et al. reported in the 2003 citation for MRS 1292 in the present experiments is consistent with past studies

[2] = test system: HCE (human ciliary epithelial) cell line, NPE cells; test: Cell volume in isosmotic solution (isosmotic shrinkage), Coulter Counter; format: cell-based
Protocol: Cell Culture The HCE (human ciliary epithelial) cell line (Carre et al., supra, 1997) is an immortalized NPE cell line obtained from primary cultures of adult human epithelium. […] Eye Res. 57:3057-3063 (1993); Yantorno et al., Exp. Eye Res. 49:423-437 (1989)). […] Cells were passaged every 6-7 days and were studied 8-13 days after passage, after reaching confluence. An immortalized PE-cell line from a primary culture of bovine pigmented ciliary epithelium were also grown under matching conditions. Measurement of Cell Volume in Isosmotic Solution: The volume of PE and NPE cells was measured, since the movement of fluid underlies a change in PE and NPE cell volume, respectively. This is also thought to be the same as the movement of fluid which underlines the secretion of aqueous humor (FIG. 1). […] Parallel aliquots of cells were studied on the same day. One aliquot usually served as a control, and the others were exposed to different experimental conditions at the time of suspension. The same amount of solvent vehicle (dimethylformamide, DMSO or ethanol) was always added to the control and experimental aliquots. […] Cell volumes of isosmotic suspensions were measured with a Coulter Counter (model ZBI-Channelyzer II), using a 100 μm aperture (Civan et al., supra, 1994). As previously described (Wax et al., supra, 1993), the cell volume (vC) of the suspension was taken as the peak of the distribution function. Cell shrinkage was fit as a function of time (t) to a monoexpenential function: […]^0^)/τ] {1) where v∞ is the steady-state cell volume, v0 is the cell volume at the first point (t0) of the time course to be fit, and τ is the time constant of the shrinkage. For purposes of data reduction, the data were normalized to the first time point, taken to be 100% isotonic volume. Fits were obtained by nonlinear least-squares regression analysis, permitting both v∞ and τ to be variables. […] Med. Chem. 37:636-646 (1994; Jacobson et al., supra, 1995; Jacobson et al., FEBS Lett. 336:57-60 (1993)).

[3] = test system: intact rabbit ciliary epithelium; test: Short-circuit current across intact rabbit ciliary epithelium (iris-ciliary body); details: 30 μM IB-MECA, 5 mM Ba2+, solvent-corrected
Protocol: As an initial step in data analysis, 20-min period of baseline current just before addition of any agent was fit by linear least-squares analysis. The line generated by that analysis was extrapolated to a point 45 min beyond introduction of that agent. Each current response was subtracted from its respective extrapolated baseline to yield a common initial baseline approximating constant zero current. All recordings were placed in register relative to time of agent introduction (time 0). Records of control (solvent), IB-MECA with solvent, and B-MECA corrected for solvent were separately averaged. […]
Transepithelial Measurements: In animal experiments, preferably rabbits, after anesthetization and sacrifice (Carre et al., J. Membr. Biol. 146:293-305 (1995), the iris-ciliary body (1-CB) was enucleated and isolated as described by Carre et al., 1995. In one experiment, the pupil and central iris were occluded with a Lucite disc, and the iris-ciliary body was mounted between the two halves of a Lucite chamber. The annulus of exposed tissue provided a projected surface area of 0.93 cm^2. Preparations were continuously bubbled with 95%O2-5% CO2 for maintenance of pH 7.4 in a Ringer's solution comprising (in mM): 110.0 NaCl, 10.0 HEPES (acid), 5.0 HEPES (Na^+), 30.0 NaHCO3, 2.5 CaCl2, 1.2 MgCl2, 5.9 KCl, and 10.0 glucose, at an osmolality of 305 mOsm. […]

[4] = test system: C57 mouse intraocular pressure; test: C57 mouse intraocular pressure, invasive servo-null technique; format: in vivo, C57 mice
mouse IOP [5] = test: Mouse IOP after topical application, invasive servo-null micropipette system (SNMS); format: in vivo, Black Swiss mice
Protocol: (§1) The test animals were black Swiss outbred mice of mixed sex, 7-9 weeks old and 25-30 g in weight, obtained from Taconic Inc. (Germantown, N.Y.), and maintained under 12:12-h light/dark illumination cycle and allowed unrestricted access to food and water. Mice were anesthetized with intraperitoneal ketamine ([…]) supplemented by topical proparacaine HCl 0.5% (Allergan, Bausch & Lomb) for the IOP measurements. IOP was measured invasively (SNMS) and non-invasively by pneumotonometry in separate animals.
By the SNMS approach (Avila et al., supra, 2001), the exploring micropipette, of […] outer diameter, was filled with a highly conducting solution and advanced across the cornea into the anterior chamber. A refined technique by Wang et al., Invest. Opthalmol. Vis. Sci. (serial online) (Aug. 31, 2006) available at www.iovs.org/egi/letters/46/9/3274#422, enhanced stability and reduce the background noise of the records, permitting fabrication of micropipettes whose resistance is 0.1-0.3 MΩ, rather than the 0.25-0.4 MΩ used initially. The filling solution was reduced from 3M KCl to 2M NaCl, rather than 3 M KCl. The resistance of the filled micropipette was balanced in a bridge circuit, and the tip was then advanced across the cornea. Upon entering the anterior chamber of the eye, the IOP forces the much lower-conducting aqueous humor into the micropipette tip, displacing the original filling solution. The micropipette resistance was thereby increased, unbalancing the bridge circuit and triggering a bellows to provide a counter-pressure, restoring the position of the filling solution and returning the resistance to its initial value. Thus, the value of the counter-pressure equals the IOP. As in the past (Avila et al., supra, 2001), the stability of the records permitted continuous measurements for tens of minutes during the course of drug applications.
(§2) Ketamine HCl was purchased from Phoenix Pharmaceutical Inc. (St. Joseph, Mo.). Other drugs were obtained from Sigma Chemical (St. Louis, Mo.). Drugs were applied topically with an Eppendorf pipette. […] The final droplet solution contained the drugs at the stated concentrations together with <2% DMSO and 0.0005% benzalkonium chloride at an osmolality of 295-300 mOsm. DMSO was omitted, altogether, from droplets containing the hydrophilic compounds adenosine, carbachol and carboxyfluorescein.
(§3) Effects on invasively-measured IOP were measured 10 min after topical application because after this time, the continued presence of the micropipette can be associated with a downward drift of the IOP, even under control conditions. In contrast, smaller droplets ([…]) were applied to the eye more frequently (three times instead of once) with the non-invasive technique, in order to forestall drying of the eye associated with the airflow from the pneumotonometer. With the non-invasive protocol, the IOP was stable for 30 min under control conditions.
In Table 1, an endpoint of 10 minutes was used for the invasive measurements in light of the above-discussed downward drift of the IOP, even under control conditions. Also the need for smaller, more frequent droplets are discussed above with regard to the non-invasive technique using the pneumotonometer. As above, with the non-invasive protocol, the IOP was stable for 30 minutes under control conditions.

mouse IOP [6] = test: Mouse IOP after topical application, non-invasive pneumotonometry; format: in vivo, Black Swiss mice
Protocol: as §1
By comparison, IOP was measured non-invasively by pneumotonometry (OBT) (Avila et al., supra, 2005). As previously described, the commercially available tip of the ocular blood tomography (OBT) pneumotonometer (Blood Flow Analyzer [BFA] probe tip; Paradigm Medical Industries Inc.) was fit to a custom-built mount. Air flow from a constant pressure source was passed through the mount to reach a diaphragm forming the end of the BFA tip. The flow of air displaces the diaphragm outward, permitting escape of the air through holes in the wall of the probe tip into the atmosphere. Pressure was monitored with a transducer connected through a T-connection to the base of the BFA tip. The probe assembly was advanced to the cornea with a three-axis micromanipulator. The probe tip was advanced sufficiently to make contact with the tear film, as was indicated by a shift in the baseline output reading. In a refined method, the tip was withdrawn until the […] was visually displaced from the tear film. The output was then adjusted to zero before advancing the tip again. Contact with the cornea depresses the diaphragm of the BFA tip, occluding access of the air flow to the escape holes and raising the pressure at the base of the tip.
This approach was simplified to expedite identification of the endpoint, and the probe was subsequently advanced in about 10 standardized steps of approximately […] at intervals of about 10 seconds to identify the inflection region (Wang et al., supra, 2006). […] The pneumotonometric estimates of IOP were previously found to agree with manometric measurements in cannulated preparations and with estimates obtained by the servo-null technique (Avila et al., supra, 2005). Having established the baseline value of IOP, the position along the axis of advance of the micromanipulator was noted, and the probe was retracted from contact with the cornea. Subsequent measurements of IOP at later time points were obtained by advancing the probe tip to the same position, with the placement of the mouse maintained stereotactically. The measurements were conducted at 10-min intervals to avoid potential artifacts associated with prolonged pressure on the cornea.
as §2, §3
In Table 1, an endpoint of 10 minutes was used for the invasive measurements in light of the above-discussed downward drift of the IOP, even under control conditions. […]

Row | Structure (SMILES) | increase in IOP (mouse IOP [1]; 140 nM) | increase in IOP (mouse IOP [1]; 10-fold lower concentration than 140 nM) | change in IOP (mouse IOP [1]; droplet concentration 1400 nM) | τ time constant of the shrinkage ([2]; 100 nM) | v∞ steady-state cell volume ([2]; 100 nM, normalized to first time point as 100% isotonic volume) | effect of agonist on isosmotic volume of NPE cells ([2]; agonist 100 nM) | Kd ([2]; in the presence of gramicidin, read-out: apparent Kd for the IB-MECA-induced shrinkage) | effect on short-circuit current [3] | IOP with MRS3771 ([4]; Mean ± SEM of 6 experiments) | change in IOP ([4]; Mean ± SEM of 6 experiments) | lowering of IOP of C57 mice ([4]; topical, N=6) | effect on mouse IOP measured invasively (in words) (mouse IOP [5]; servo-null, topical) | effect on IOP in the mouse (in words) (mouse IOP [5]; tested by the inventors, technique not given) | Δ(IOP) Servo-Null (mouse IOP [5]; topical droplet 250 μM (2% DMSO), endpoint 10 min) | effect on mouse IOP measured non-invasively (in words) (mouse IOP [6]; pneumotonometry, topical, MRS-3833 at 200 nM) | Δ(IOP) Pneumotonometer (mouse IOP [6]; topical droplets 250 μM (2% DMSO), 30 min)
1 | CNC(=O)[C@H]1O[C@@H](n2cnc3c(NCc4cccc(I)c4)ncnc32)[C@H](O)[C@@H]1O [IB-MECA, N^6-(3-iodobenzyl)-adenosine-5′-N-methyluronamide] | 4.6±1.6 mmHg | 2.2±0.5 mm Hg | −1.2±1.9 mmHg | 4.5 ± 0.6 min | 95.6±0.2% | produced prompt shrinkage | 55 nM | increased the short circuit current; also recorded: produced a significant increase in the short-circuit current |  |  |  |  |  |  |  | 
2 | CN(C)C(=O)[C@H]1O[C@@H](n2cnc3c(NCc4cccc(I)c4)nc(Cl)nc32)[C@H](O)[C@@H]1O [MRS-3771] |  |  |  |  |  |  |  |  | 13.2 ± 1.6 mm Hg | −3.3 ± 0.6 mm Hg | 3.3±0.6 mm Hg | effective in lowering mouse IOP | found to lower IOP in the mouse | −3.0 ± 1.1 mm Hg | exerted no effect on IOP | +0.4 ± 0.6 mm Hg
